{"source": "paper PMC7156724", "about": "“Potent BRD4 inhibitor suppresses cancer cell-macrophage interaction” (Nature Communications, 2020)", "key": {"HIF1 reporter activity": {"test_system": "HIF1 reporter activity", "experiment": "HIF1 luciferase reporter assay", "type": "cell-based, human", "set-up": "key to HIF1 luciferase reporter activity, relative (Fig.7e): firefly/Renilla luciferase activity ratio, relative to control", "protocol": "Fig. 7 NHWD-870 inhibited CSF1 expression through suppressing BRD4 and HIF1α in tumor cells. a, b Representative western blot analysis of control (Ctrl) and BRD4 knockout (KO) A375 and A2780 cells exposed to 20% or 1% O2 for 24 hours. Selected from three independent experiments. c, d Representative western blot analysis of A375 and A2780 cells treated with DMSO or 25 nM NHWD-870 and exposed to 20% or 1% O2 for 24 h. Selected from three independent experiments. e Relative HIF1 luciferase reporter activity in control (Ctrl), BRD4 knockout (KO), or NHWD-870 treated A375 and A2780 cells exposed to 20% or 1% O2 for 24 h. Data are presented as mean ± SEM from three independent experiments. f RT-qPCR analyses of CSF1 in control (Ctrl), BRD4 knockout (KO), or NHWD-870 treated A375 and A2780 cells exposed to 20% or 1% O2 for 24 hours. Data are presented as mean ± SEM from three independent experiments. g RT-qPCR analyses of HIF1A in A375 or A2780 cells treated with 15 nM NHWD-870 or DMSO control for 24 h. Data are presented as mean ± SEM from three independent experiments. h Genome browser view of BRD4 ChIP-seq peaks on the HIF1A promoter. Shown are BRD4 ChIP and input control of A375 cells (top panel) and BRD4 ChIP of MDA-MB231 cells treated with DMSO or JQ-1 (bottom panel). i BRD4 ChIP-qPCR analyses of the HIF1A promoter in A2780 cells treated with DMSO or NHWD-870 for 72 h. Data are presented as mean ± SEM from three independent experiments. j RT-qPCR analyses of CSF1 in A375 and A2780 cells were transiently transduced with HIF1α, then exposed to 1% O2 for 24 h. Ctrl, Control. Data are presented as mean ± SEM from three independent experiments. k A model showing the effects of NHWD-870 on cancer cell-TAM interaction. NHWD-870 inhibits the proliferation and survival of TAMs partly by inhibiting BRD4 activity, HIF1α expression, and CSF1 secretion by tumor cells, and downregulating CSF1R mediated ERK and PI3K/AKT signaling in TAMs. p values were calculated using two-tailed, unpaired t tests in this figure. *p < 0.05; **p < 0.01; ***p < 0.001. Source data are provided as a Source Data file.\nSupplementary Figure 15. […]\nData in (a) and (c-e) are presented as mean ± SEM from 3 independent experiments. p values were calculated using two-tailed, unpaired t tests. **, p<0.01; ***, p<0.001. Source data are provided as a Source […]\nAll patients had […]\nundergone complete cytoreductive surgery.\n14. Immunohistochemical staining. Paraffin-embedded implantation samples isolated from peritoneal metastasis of EOC patients (128 cases) were sectioned at a thickness of 4μm. To stain CD68, CSF1 and p-BRD4, the slides were first deparaffinized in xylene and rehydrated with gradient concentrations of alcohol under standard procedures. After rehydration, the slides were immersed in 0.01 mol/L citrate buffer (pH 6.0) and heated (95°C) for 15 min for antigen retrieval.\nThen, the samples were incubated with 3% hydrogen peroxide (H2O2) for 10 minutes followed by 10% normal goat serum blocking for 10 minutes. Subsequently, the sections were incubated with rabbit polyclonal anti-human CD68 antibody (dilution 1:100) (sc-20060, Santa Cruz Biotechnology) and anti-human p-BRD4"}, "MDA-MB231 cells": {"test_system": "MDA-MB231 cells", "experiment": "Clonogenic (colony formation) assay, MDA-MB231", "type": "cell-based, human", "details": "MDA-MB231, 250 nM, 5 days", "protocol": "Fig. 2 NHWD-870 inhibited BRD4 phosphorylation and c-MYC expression, and suppressed cell growth. a Representative western blot analysis of p-BRD4 (s484/488), BRD4, c-MYC, and GAPDH after treatment of MDA-MB231, SUM159, A2780 ES-2, and H526 cells with JQ-1 or NHWD-870 at the indicated concentrations for 24 h. GAPDH served as the loading control. Selected from three independent experiments. b MTT assays of H526, A2780, ES-2, and MDA-MB231 cells treated with JQ-1 or NHWD-870 at the indicated concentrations for 5 days. Data are presented as mean ± SEM from three independent experiments. c, d Clonogenic assays of H526, A2780, ES-2 and MDA-MB231 cells treated with 250 nM JQ-1 or NHWD-870 for 5 days. Shown are representative images (c) and quantification of colonies (d). […] Shown are representative images (e) and quantification of relative colony sizes (f). Scale bar, 50 μm. Data are presented as mean ± SEM from five independent experiments. p values were calculated using two-tailed, unpaired t tests in this figure. **p < 0.01; ***p < 0.001. Source data are provided as a Source Data file. […]\n5. Colony formation assay. Cells were seeded in 6-well plates at 3,000 cells/well […]\nevery week. […] Colony numbers were calculated with imageJ version"}}, "note": "“And” between values parts separate entries of the source, which are not always exact repeats. Equal entries are not always repeated.", "data": [{"smiles": "Cc1nnn(C)c1-c1cnc2c3c4cnn(C)c4ccc3n([C@H](c3ccccc3)C3CCOCC3)c2c1", "note": "[NHWD-870]", "values": [{"measurement": "HIF1 luciferase reporter activity, relative (Fig.7e)", "setting": "HIF1 reporter activity; A375, 1% O2", "result": "3.6595 and 5.4118 and 3.2149"}, {"measurement": "HIF1 luciferase reporter activity, relative (Fig.7e)", "setting": "HIF1 reporter activity; A375, 20% O2", "result": "0.7214 and 0.5505 and 0.6045"}, {"measurement": "HIF1 luciferase reporter activity, relative (Fig.7e)", "setting": "HIF1 reporter activity; A2780, 1% O2", "result": "1.7045 and 2.3901 and 2.1842"}, {"measurement": "HIF1 luciferase reporter activity, relative (Fig.7e)", "setting": "HIF1 reporter activity; A2780, 20% O2", "result": "0.5644 and 0.5674 and 0.4042"}, {"measurement": "HIF1 reporter activity", "setting": "HIF1 reporter activity; A2780 and A375 cells, 20% or 1% O2, 24 h", "result": "significantly decreased HIF1 reporter activity"}, {"measurement": "Clone Number (clonogenic assay)", "setting": "MDA-MB231 cells", "result": "571 and 603 and 635 and 542 and 519"}]}]}
